The species named for data set [1] is Homo sapiens. The data set is described as follows: Selectivity ratio of IC50 for C-terminal His6-tagged human Her2 (676 to end residues) to IC50 for human full length N-terminal His6-tagged BMX.
Data set [2] relates to NCI-H1975. The data set is described as follows: Antiproliferative activity against human NCI-H1975 cells harboring EGFR L858R/T790M mutant after 72 hrs by MTT assay. As to conditions: NCI-H1975, 72 h. In kind it is functional, cell-based. On the technique in general: Tetrazolium dyes change colour on reduction, which living cells bring about.
The species entered for data set [3] is Homo sapiens. The experiment in a line: Selectivity ratio of IC50 for recombinant human full length N-terminal His6-tagged YES to IC50 for human full length N-terminal His6-tagged BMX.
The species entered for data set [4] is Homo sapiens. The experiment in a line: Selectivity ratio of IC50 for BLK (unknown origin) to IC50 for human full length N-terminal His6-tagged BMX.
Data set [5] is filed under the species Homo sapiens. The data set is described as follows: Selectivity ratio of IC50 for recombinant human N-terminal His6-tagged FGR (2 to end residues) to IC50 for human full length N-terminal His6-tagged BMX.
Data set [6] concerns the target Receptor-interacting serine/threonine-protein kinase 2 (Homo sapiens, UniProt O43353). The experiment in a line: Inhibition of recombinant human N-terminal His6-tagged RIPK2 (1 to 299 residues) expressed in baculovirus Sf21 insect cells preincubated for 5 mins followed by substrate addition after 30 to 60 mins in presence of ATP by fluorescence assay.
Data set [7] deals with Receptor tyrosine-protein kinase erbB-2 (Homo sapiens, UniProt P04626). The experiment in a line: Inhibition of human C-terminal 6His-tagged Her2 (676 to end) expressed in baculovirus Sf21 insect cells preincubated for 5 mins followed by biotinyl-beta Abeta Abeta AAEEEEYFELVAKKK substrate addition after 30 to 60 mins in presence of ATP by fluorescence assay.
The species named for data set [8] is Homo sapiens. The data set is described as follows: Selectivity ratio of IC50 for recombinant human full length N-terminal His6-tagged LYN to IC50 for human full length N-terminal His6-tagged BMX.
The species entered for data set [9] is Homo sapiens. The experiment in a line: Selectivity ratio of IC50 for recombinant human full length N-terminal GST-tagged CSK to IC50 for human full length N-terminal His6-tagged BMX.
Data set [10] concerns the target Tyrosine-protein kinase Blk (Homo sapiens, UniProt P51451). The data set is described as follows: Inhibition of BLK (unknown origin) preincubated for 5 mins followed by substrate addition after 30 to 60 mins in presence of ATP by fluorescence assay.
The target in data set [11] is Tyrosine-protein kinase TXK (Homo sapiens, UniProt P42681). The data set is described as follows: Inhibition of recombinant human N-terminal His6-tagged TXK (256 to end residues) expressed in baculovirus Sf21 insect cells preincubated for 5 mins followed by substrate addition after 30 to 60 mins in presence of ATP by fluorescence assay.
For data set [12], the species on record is Homo sapiens. The experiment in a line: Selectivity ratio of IC50 for human N-terminal 6His-tagged HER4 (706 to 991 residues) to IC50 for human full length N-terminal His6-tagged BMX.
The target in data set [13] is Tyrosine-protein kinase Lck (Homo sapiens, UniProt P06239). The experiment in a line: Inhibition of recombinant human full length N-terminal His6-tagged LCK expressed in Sf21 insect cells preincubated for 5 mins followed by substrate addition after 30 to 60 mins in presence of ATP by fluorescence assay.
The test system of data set [14] is NCI-H1975. The data set is described as follows: Antitumor activity against human NCI-H1975 cells xenografted in nude mouse assessed as tumor growth inhibition at 25 mg/kg administered via oral gavage qd measured every 2 days up to 18 days relative to control. In kind it is functional. As to conditions: read-out: TGI.
For data set [15], the target named is Tyrosine-protein kinase ITK/TSK (Homo sapiens, UniProt Q08881). The data set is described as follows: Inhibition of recombinant human N-terminal His6-tagged ITK (352 to 617 residues) expressed in baculovirus Sf21 insect cells preincubated for 5 mins followed by Ulight-TK peptide substrate addition after 30 to 60 mins in presence of ATP by fluorescence assay.

Data set [16] has as its target Platelet-derived growth factor receptor alpha (Homo sapiens, UniProt P16234). The data set is described as follows: Inhibition of human PDGFRalpha expressed in baculovirus Sf21 insect cells preincubated for 5 mins followed by substrate addition after 30 to 60 mins in presence of ATP by fluorescence assay.
A short description of data set [17]: Aqueous solubility of the compound at 1 mg. In kind it is physicochemical.
The species entered for data set [18] is Homo sapiens. The data set is described as follows: Selectivity ratio of IC50 for recombinant human full length N-terminal His6-tagged SYK to IC50 for human full length N-terminal His6-tagged BMX.

In general, IC50 refers to the concentration at which inhibition is half-maximal. As a reminder, the solubility is the concentration that dissolves in the medium under given conditions.

≈ marks a conversion by molar mass, not a printed value.

Receptor tyrosine-protein kinase erbB-2, sequence (P04626 whole entry): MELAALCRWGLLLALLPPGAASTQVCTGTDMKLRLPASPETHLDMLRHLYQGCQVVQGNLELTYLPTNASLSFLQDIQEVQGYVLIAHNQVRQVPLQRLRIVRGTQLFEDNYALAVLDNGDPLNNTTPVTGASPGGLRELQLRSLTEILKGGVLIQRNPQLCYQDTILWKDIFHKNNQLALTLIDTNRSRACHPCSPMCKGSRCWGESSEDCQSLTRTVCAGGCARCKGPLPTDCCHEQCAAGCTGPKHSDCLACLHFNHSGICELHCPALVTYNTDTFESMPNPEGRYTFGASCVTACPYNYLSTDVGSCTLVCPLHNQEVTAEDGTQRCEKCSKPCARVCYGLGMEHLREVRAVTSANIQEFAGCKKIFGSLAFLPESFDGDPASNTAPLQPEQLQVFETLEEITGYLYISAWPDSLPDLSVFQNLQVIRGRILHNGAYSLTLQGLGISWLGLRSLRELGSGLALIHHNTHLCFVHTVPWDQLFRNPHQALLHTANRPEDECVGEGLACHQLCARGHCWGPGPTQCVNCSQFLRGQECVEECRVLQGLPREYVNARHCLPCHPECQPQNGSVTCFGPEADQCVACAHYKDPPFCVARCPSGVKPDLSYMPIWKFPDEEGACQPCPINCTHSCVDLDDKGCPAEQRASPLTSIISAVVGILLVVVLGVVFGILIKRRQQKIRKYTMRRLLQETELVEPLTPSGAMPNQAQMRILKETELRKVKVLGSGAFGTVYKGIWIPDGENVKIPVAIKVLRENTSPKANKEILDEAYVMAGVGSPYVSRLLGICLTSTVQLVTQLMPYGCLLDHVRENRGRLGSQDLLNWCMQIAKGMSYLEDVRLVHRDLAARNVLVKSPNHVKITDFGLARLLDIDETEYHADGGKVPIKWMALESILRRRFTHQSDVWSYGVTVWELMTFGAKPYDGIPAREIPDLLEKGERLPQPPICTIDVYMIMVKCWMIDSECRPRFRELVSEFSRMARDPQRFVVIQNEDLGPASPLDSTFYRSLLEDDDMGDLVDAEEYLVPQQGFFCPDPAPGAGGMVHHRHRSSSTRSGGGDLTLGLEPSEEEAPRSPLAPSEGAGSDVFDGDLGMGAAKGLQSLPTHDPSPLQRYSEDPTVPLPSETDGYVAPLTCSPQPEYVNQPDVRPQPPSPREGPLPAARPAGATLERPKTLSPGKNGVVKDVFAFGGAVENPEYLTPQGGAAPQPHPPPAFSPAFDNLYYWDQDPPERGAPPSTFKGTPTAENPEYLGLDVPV
Receptor-interacting serine/threonine-protein kinase 2, sequence (O43353 whole entry, the tested form may be a part): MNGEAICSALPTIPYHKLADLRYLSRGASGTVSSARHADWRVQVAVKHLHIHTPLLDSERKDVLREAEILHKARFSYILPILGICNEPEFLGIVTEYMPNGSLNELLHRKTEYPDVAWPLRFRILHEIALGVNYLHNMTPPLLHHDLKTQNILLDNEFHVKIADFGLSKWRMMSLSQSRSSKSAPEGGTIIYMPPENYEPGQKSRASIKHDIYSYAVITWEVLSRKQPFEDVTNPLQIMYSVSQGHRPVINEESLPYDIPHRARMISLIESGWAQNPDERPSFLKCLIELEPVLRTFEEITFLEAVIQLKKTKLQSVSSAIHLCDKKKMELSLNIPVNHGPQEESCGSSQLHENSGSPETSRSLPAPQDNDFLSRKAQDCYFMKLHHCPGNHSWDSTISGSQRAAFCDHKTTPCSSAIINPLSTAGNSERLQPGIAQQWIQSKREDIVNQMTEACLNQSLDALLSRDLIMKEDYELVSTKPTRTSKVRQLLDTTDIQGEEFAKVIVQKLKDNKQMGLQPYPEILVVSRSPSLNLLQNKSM
Tyrosine-protein kinase TXK, sequence (P42681 whole entry, the tested form may be a part): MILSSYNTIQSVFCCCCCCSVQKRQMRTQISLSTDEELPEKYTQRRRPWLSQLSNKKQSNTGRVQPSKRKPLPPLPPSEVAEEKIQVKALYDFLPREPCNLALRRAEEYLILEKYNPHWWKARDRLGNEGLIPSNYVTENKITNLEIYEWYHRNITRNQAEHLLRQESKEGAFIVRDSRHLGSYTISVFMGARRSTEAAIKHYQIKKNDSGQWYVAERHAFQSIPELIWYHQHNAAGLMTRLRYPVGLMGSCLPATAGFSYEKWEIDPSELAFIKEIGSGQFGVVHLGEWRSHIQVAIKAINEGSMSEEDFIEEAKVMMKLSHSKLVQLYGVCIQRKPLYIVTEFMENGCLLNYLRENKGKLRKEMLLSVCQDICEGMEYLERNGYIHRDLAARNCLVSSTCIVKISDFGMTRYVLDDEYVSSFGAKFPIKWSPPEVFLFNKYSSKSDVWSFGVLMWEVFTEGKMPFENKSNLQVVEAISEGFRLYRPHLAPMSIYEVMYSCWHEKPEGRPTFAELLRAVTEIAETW
Platelet-derived growth factor receptor alpha, sequence (P16234 whole entry): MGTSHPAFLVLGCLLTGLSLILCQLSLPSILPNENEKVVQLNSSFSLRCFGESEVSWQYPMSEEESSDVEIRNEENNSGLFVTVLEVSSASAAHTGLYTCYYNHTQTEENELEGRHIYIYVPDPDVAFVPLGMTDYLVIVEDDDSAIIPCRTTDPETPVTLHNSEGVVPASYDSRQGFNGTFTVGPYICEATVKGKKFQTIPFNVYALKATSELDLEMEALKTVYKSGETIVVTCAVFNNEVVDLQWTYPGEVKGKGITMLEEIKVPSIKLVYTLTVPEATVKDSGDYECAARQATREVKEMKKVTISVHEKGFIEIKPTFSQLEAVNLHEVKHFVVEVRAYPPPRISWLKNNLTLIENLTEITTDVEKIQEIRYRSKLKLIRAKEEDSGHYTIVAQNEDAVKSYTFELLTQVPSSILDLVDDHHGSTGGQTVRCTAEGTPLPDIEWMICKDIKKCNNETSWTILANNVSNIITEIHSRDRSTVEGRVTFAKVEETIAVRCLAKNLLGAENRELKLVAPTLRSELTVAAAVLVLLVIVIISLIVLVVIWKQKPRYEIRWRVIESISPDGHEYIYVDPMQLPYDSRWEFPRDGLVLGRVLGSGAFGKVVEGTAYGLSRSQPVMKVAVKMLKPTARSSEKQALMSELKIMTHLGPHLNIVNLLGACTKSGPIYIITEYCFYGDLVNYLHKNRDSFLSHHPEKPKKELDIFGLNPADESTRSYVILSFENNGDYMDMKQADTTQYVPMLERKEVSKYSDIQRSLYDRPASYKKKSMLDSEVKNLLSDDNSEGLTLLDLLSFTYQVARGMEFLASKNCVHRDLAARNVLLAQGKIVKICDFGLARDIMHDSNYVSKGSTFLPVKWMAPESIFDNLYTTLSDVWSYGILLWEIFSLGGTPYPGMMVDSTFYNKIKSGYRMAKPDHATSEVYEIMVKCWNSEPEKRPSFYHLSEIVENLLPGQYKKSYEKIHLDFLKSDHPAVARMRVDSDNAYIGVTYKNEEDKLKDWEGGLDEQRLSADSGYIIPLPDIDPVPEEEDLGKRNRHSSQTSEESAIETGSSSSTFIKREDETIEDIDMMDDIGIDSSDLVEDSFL
Tyrosine-protein kinase ITK/TSK, sequence (Q08881 whole entry, the tested form may be a part): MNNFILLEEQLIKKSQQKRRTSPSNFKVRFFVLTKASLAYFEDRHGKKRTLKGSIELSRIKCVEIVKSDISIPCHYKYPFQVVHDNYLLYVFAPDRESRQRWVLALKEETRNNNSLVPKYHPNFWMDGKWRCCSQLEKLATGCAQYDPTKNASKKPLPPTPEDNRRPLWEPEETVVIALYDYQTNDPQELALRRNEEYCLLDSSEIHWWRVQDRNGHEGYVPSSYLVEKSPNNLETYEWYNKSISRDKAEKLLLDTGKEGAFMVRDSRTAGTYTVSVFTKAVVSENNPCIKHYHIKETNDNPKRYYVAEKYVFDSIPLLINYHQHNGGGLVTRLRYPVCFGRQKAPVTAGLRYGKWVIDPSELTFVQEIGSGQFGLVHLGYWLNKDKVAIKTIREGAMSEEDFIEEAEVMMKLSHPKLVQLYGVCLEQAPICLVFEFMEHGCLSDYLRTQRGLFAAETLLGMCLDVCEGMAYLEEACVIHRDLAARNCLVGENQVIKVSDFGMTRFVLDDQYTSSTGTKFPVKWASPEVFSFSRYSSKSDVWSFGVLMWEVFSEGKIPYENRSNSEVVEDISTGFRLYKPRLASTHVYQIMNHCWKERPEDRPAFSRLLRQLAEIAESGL
Tyrosine-protein kinase Lck, sequence (P06239 whole entry): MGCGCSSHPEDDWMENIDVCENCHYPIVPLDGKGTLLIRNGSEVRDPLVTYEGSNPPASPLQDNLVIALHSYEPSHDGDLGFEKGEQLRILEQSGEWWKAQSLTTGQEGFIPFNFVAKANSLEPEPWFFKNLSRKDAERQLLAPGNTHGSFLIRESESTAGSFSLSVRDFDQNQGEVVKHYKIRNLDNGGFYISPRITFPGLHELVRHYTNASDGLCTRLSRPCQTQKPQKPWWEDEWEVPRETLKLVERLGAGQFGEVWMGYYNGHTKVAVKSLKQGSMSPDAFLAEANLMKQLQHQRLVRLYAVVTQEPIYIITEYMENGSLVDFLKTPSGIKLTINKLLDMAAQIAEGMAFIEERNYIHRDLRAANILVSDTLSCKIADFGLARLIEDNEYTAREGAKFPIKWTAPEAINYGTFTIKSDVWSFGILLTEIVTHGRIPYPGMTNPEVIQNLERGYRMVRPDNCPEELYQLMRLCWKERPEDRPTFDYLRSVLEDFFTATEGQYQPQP
Tyrosine-protein kinase Blk, sequence (P51451 whole entry): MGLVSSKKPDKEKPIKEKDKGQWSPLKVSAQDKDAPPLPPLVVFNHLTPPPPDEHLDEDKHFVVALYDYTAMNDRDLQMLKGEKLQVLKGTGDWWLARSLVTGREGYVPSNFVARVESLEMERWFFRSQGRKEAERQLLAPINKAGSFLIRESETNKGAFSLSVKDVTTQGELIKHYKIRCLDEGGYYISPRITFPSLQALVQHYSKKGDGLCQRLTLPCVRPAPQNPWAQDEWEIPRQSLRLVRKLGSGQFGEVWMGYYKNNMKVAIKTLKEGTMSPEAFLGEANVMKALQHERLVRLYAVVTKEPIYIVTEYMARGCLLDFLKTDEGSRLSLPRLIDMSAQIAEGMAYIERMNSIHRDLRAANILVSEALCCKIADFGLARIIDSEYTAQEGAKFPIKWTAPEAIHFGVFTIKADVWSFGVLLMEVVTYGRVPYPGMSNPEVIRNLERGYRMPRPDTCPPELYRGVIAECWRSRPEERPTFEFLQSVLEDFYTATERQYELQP

Turning to `C=CS(=O)(=O)N1CCC[C@@H]1Cn1cc(-c2ccc3c(c2)OCO3)c2c(N)ncnc21`, the Ratio IC50 in the data set filed under Homo sapiens [1] was 37.8; in the data set filed under Homo sapiens [3] it was 1.6; in the data set filed under Homo sapiens [4] it was 2.1; in the data set listed under Homo sapiens [5], 3.7; in the data set listed under Homo sapiens [8], 8.3; in the data set filed under Homo sapiens [9], 79.2. Further, the Ratio IC50 is 28.1 in the data set filed under Homo sapiens [12] and more than 280 in the data set listed under Homo sapiens [18]. The IC50 in the data set on NCI-H1975 [2] stood at 920 nM; in data set [6], 403 nM; in data set [7], 1350 nM; in data set [10], 76.4 nM; in data set [11], 883 nM; in [13] it was 195 nM. Further, the IC50 in data set [15] is 5650 nM; in data set [16], more than 10000 nM. For the same compound, the inhibition in vivo at 25 mg/kg in the data set with NCI-H1975 [14] came out at 73.9%. This compound also returned a solubility in data set [17] of 100 µg/mL (≈ 234 µM).

The record behind these values is ChEMBL document CHEMBL4052785, “Discovery of (R)-5-(benzo[d][1,3]dioxol-5-yl)-7-((1-(vinylsulfonyl)pyrrolidin-2-yl)methyl)-7H-pyrrolo[2,3-d]pyrimidin-4-amine (B6) as a potent Bmx inhibitor for the treatment of NSCLC” (Bioorg Med Chem Lett, 2017).
